Data: US10392368B2, “Pyrazolo and triazolo bicyclic compounds as JAK kinase inhibitors” (THERAVANCE BIOPHARMA R&D IP, LLC, priority 2017, dated 2019)

Key:
[1] = molecular target: T1, JAK1 (Homo sapiens, UniProt P23458); experiment: Biochemical JAK1 kinase assay (LanthaScreen); conditions: read-out: JAK 1 (pKi) (converted)
T1 construct: GST; purchased Life Technologies
Outline: (§1)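 TR-FRET read-out: terbium anti-pSTAT1 (pTyr701) antibody, 2 nM, with 10 mM EDTA quench, emission ratio 520/495 nm. GST-JAK phosphorylates GFP-STAT1 peptide for 1 h at ambient temperature after 1 h compound pre-incubation. pIC50 from dose-response converted to pKi by Cheng-Prusoff.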

[2] = system: IL-2 stimulated pSTAT5 in Tall-1 T cells; experiment: Cellular JAK3 potency assay: inhibition of IL-2 stimulated pSTAT5 in Tall-1 T cells; type: cell-based, human; conditions: Homo sapiens, TALL-1, IL-2 stimulated pSTAT5 in Tall-1 T cells; read-out: Tall-1 (pIC50) (converted)
Outline: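 Tall-1 human T cells were preincubated with compound for 1 h at 37° C, then stimulated with IL-2 (300 ng/ml final) for 30 min. STAT5 phosphorylation in lysates was read by AlphaLisa bead emission, and IC50 from inhibition curves is given as pIC50 (mean±SD).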

[3] = molecular target: T2, JAK3 (Homo sapiens, UniProt P52333); experiment: Biochemical JAK3 kinase assay (LanthaScreen); parameters: GST; purchased Life Technologies; conditions: for Ki: read-out: JAK 3 (pKi) (converted); for JAK3 (pKi)-JAK1 (pKi): selectivity: difference of pKi JAK3 and pKi JAK1
T2 sequence (P52333 1-1124): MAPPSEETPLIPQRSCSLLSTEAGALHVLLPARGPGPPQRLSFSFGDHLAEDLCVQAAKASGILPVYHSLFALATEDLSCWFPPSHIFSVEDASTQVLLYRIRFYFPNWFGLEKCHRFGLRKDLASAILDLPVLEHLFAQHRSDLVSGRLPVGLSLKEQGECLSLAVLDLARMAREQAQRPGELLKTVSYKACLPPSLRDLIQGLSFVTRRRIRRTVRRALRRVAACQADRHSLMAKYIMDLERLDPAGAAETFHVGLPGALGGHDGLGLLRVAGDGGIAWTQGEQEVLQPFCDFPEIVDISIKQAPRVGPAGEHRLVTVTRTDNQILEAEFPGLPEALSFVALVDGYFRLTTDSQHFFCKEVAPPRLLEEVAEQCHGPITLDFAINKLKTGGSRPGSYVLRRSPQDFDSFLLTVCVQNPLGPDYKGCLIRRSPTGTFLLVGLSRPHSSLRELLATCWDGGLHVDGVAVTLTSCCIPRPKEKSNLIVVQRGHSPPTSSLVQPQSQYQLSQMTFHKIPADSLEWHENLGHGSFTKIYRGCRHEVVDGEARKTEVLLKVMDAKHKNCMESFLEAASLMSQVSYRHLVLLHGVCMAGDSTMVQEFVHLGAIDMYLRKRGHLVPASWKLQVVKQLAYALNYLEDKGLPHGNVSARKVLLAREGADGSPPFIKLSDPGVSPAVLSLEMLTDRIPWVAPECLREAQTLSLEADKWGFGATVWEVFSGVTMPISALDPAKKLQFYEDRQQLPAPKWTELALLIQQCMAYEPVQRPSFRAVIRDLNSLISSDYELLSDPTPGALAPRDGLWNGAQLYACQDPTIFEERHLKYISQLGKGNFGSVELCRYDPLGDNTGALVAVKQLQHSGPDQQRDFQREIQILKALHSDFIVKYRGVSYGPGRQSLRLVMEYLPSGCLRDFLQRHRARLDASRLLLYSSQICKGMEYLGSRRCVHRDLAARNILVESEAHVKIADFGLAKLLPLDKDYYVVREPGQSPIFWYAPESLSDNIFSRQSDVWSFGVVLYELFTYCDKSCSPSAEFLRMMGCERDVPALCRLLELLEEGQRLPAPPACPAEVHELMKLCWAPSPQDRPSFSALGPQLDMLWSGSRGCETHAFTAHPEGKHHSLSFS
Outline: as §1

T1 sequence (P23458 whole entry): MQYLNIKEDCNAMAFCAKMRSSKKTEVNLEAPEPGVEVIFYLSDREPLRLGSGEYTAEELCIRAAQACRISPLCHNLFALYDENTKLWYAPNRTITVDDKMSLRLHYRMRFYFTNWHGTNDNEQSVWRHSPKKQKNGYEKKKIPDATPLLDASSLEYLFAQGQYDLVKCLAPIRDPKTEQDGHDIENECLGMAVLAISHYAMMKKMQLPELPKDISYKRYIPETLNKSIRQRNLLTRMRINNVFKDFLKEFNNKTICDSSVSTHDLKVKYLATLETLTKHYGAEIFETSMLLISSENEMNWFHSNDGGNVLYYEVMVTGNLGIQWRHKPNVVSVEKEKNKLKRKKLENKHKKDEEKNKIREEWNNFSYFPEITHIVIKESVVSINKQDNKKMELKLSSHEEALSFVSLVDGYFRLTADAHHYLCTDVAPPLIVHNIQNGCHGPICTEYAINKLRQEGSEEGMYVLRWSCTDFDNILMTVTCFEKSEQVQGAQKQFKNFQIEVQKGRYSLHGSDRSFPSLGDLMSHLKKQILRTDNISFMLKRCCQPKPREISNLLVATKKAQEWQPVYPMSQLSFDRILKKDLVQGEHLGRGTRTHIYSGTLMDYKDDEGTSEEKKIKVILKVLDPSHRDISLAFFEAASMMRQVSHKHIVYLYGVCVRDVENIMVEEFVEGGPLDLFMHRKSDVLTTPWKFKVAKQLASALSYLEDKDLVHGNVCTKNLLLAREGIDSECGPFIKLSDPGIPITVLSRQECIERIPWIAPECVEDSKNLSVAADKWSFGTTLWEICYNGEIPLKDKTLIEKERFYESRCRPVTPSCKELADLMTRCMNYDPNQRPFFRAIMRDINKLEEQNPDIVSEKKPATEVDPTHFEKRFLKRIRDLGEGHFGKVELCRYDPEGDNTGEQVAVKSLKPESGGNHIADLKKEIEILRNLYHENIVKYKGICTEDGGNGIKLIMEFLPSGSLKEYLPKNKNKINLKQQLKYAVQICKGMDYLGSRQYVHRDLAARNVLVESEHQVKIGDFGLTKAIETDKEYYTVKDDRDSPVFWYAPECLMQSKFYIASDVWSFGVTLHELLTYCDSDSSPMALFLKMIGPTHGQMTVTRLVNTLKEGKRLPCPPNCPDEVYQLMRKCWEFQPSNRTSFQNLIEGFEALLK

| SMILES | Ki [1] | IC50 [2] | Ki [3] | JAK3 (pKi)-JAK1 (pKi) [3] |
| --- | --- | --- | --- | --- |
| CN(C)C/C=C/C(=O)N1CC(COc2cc(-c3ccc(O)cc3)cc3[nH]ncc23)C1 [Compound 1, (E)-4-(dimethylamino)-1-(3-(((6-(4-hydroxyphenyl)-1H-indazol-4-yl)oxy)methyl)azetidin-1-yl)but-2-en-1-one] | > 100 nM | 31.6 to 200 nM | < 0.1 nM | A (a value of 3 or above) |
| C=CC(=O)N1CC[C@H](Oc2cc(-c3ccc(O)c(Cl)c3)cc3[nH]ncc23)C1 [Compound 2, (S)-1-(3-((6-(3-chloro-4-hydroxyphenyl)-1H-indazol-4-yl)oxy)pyrrolidin-1-yl)prop-2-en-1-one] | > 100 nM | < 31.6 nM | < 0.1 nM | A (a value of 3 or above) |
| CN(C)C/C=C/C(=O)N1CC(C(C)(C)Oc2cc(-c3ccc(O)c(Cl)c3)cc3[nH]ncc23)C1 [Compound 3, (E)-1-(3-(2-((6-(3-chloro-4-hydroxyphenyl)-1H-indazol-4-yl)oxy)propan-2-yl)azetidin-1-yl)-4-(dimethylamino)but-2-en-1-one] | > 100 nM | 31.6 to 200 nM | 0.1 to 1 nM | A (a value of 3 or above) |
| C=CC(=O)N1CC(COc2nc(-c3ccc(O)cc3)nc3[nH]ncc23)C1 [Compound 4, 1-(3-(((6-(4-hydroxyphenyl)-1H-pyrazolo[3,4-d]pyrimidin-4-yl)oxy)methyl)azetidin-1-yl)prop-2-en-1-one] | > 100 nM | 31.6 to 200 nM | < 0.1 nM | A (a value of 3 or above) |
| CN(C)C/C=C/C(=O)N1CC(COc2cc(-c3ccc(O)c(F)c3)cc3[nH]ncc23)C1 [Compound 5, (E)-4-(dimethylamino)-1-(3-(((6-(3-fluoro-4-hydroxyphenyl)-1H-indazol-4-yl)oxy)methyl)azetidin-1-yl)but-2-en-1-one] | > 100 nM | 31.6 to 200 nM | < 0.1 nM | A (a value of 3 or above) |
| C=CC(=O)N1CCO[C@@H](C(=O)Nc2cc(-c3ccc(O)cc3)cc3[nH]ncc23)C1 [Compound 6, (R)-4-acryloyl-N-(6-(4-hydroxyphenyl)-1H-indazol-4-yl)morpholine-2-carboxamide] | > 100 nM | < 31.6 nM | < 0.1 nM | A (a value of 3 or above) |
| C=CC(=O)N1CC[C@H](COc2cc(-c3ccc(O)cc3)cc3[nH]ncc23)C1 [Compound 7, (S)-1-(3-(((6-(4-hydroxyphenyl)-1H-indazol-4-yl)oxy)methyl)pyrrolidin-1-yl)prop-2-en-1-one] | > 100 nM | 31.6 to 200 nM | 0.1 to 1 nM | A (a value of 3 or above) |
| CN(C)C/C=C/C(=O)N1CC(C#N)(COc2cc(-c3ccc(O)c(F)c3)cc3[nH]ncc23)C1 [Compound 8, (E)-1-(4-(dimethylamino)but-2-enoyl)-3-(((6-(3-fluoro-4-hydroxyphenyl)-1Hindazol-4-yl)oxy)methyl)azetidine-3-carbonitrile] | > 100 nM | < 31.6 nM | < 0.1 nM | A (a value of 3 or above) |
| CN(C)C/C=C/C(=O)N1CCC(C)(Oc2cc(-c3ccc(O)cc3)cc3[nH]ncc23)CC1 [Compound 9, (E)-4-(dimethylamino)-1-(4-((6-(4-hydroxyphenyl)-1H-indazol-4-yl)oxy)-4-methylpiperidin-1-yl)but-2-en-1-one] | > 100 nM | 31.6 to 200 nM | 0.1 to 1 nM | A (a value of 3 or above) |
| C=CC(=O)N1CC(C(C)(C)Oc2cc(-c3ccc(O)cc3)nc3[nH]ncc23)C1 [Compound 20, 1-(3-(2-((6-(4-hydroxyphenyl)-1H-pyrazolo[3,4-b]pyridin-4-yl)oxy)propan-2-yl)azetidin-1-yl)prop-2-en-1-one] | > 100 nM | < 31.6 nM | < 0.1 nM | A (a value of 3 or above) |
| C=CC(=O)N1CC(C)(COc2nc(-c3ccc(O)c(F)c3)nc3[nH]ncc23)C1 [Compound 21, 1-(3-(((6-(3-fluoro-4-hydroxyphenyl)-1H-pyrazolo[3,4-d]pyrimidin-4-yl)oxy)methyl)-3-methylazetidin-1-yl)prop-2-en-1-one] | > 100 nM | 31.6 to 200 nM | < 0.1 nM | A (a value of 3 or above) |
| C=CC(=O)N1CC(CC)(COc2cc(-c3ccc(O)cc3)nc3[nH]ncc23)C1 [Compound 22, 1-(3-ethyl-3-(((6-(4-hydroxyphenyl)-1H-pyrazolo[3,4-b]pyridin-4-yl)oxy)methyl)azetidin-1-yl)prop-2-en-1-one] | > 100 nM | 31.6 to 200 nM | < 0.1 nM | A (a value of 3 or above) |
